# Data taken from patent US12403086B2, “Solid drug tablets for implantable drug delivery devices” (TARIS Biomedical LLC, priority 2009, dated 2025).
# Legend:
# [1] = In vitro drug release from silicone tube devices loaded with lidocaine base tablets, with varying numbers of apertures; type: physicochemical; settings: silicone tubes about 3 cm, payload about 60 mg, in vitro in water at about 37° C.
# Experimental: Another study was performed to investigate the feasibility of delivering drug from a device through both a wall of a drug reservoir and from an aperture in the wall of the drug reservoir. Devices were formed form silicone tubes having a length of about 3 cm. The devices were loaded with solid drug tablets of lidocaine base, for a total payload of about 60 mg. […] The devices were tested in vitro in water at about 37° C.
# [2] = In vitro drug release from silicone tube devices loaded with solid lidocaine tablets (diffusion through the wall of the drug reservoir); type: physicochemical; settings: silicone tube ID about 0.060 in, OD 0.076 in, length about 3 cm, payload about 60 mg, no aperture; in vitro in water at about 37° C.
# Experimental: A study was performed to determine the feasibility of delivering drug through the wall of a drug reservoir via diffusion. Devices were formed form silicone tubes having an inner diameter of about 0.060 inches, an outer diameter of 0.076 inches, and a length of about 3 cm. The devices were loaded with solid drug tablets of lidocaine, for a total payload of about 60 mg. Some of the devices included an aperture formed through the tube wall, the aperture having a diameter of 150 μm. These devices were loaded with solid tablets of either lidocaine hydrochloride monohydrate or a combination of lidocaine hydrochloride monohydrate and lidocaine base. […] The devices were tested in vitro in water at about 37° C.
structure (smiles),measurement,setting,value
"CCN(CC)CC(=O)Nc1c(C)cccc1C [lidocaine base, lidocaine]",release from silicone tube without apertures,[1]; no apertures (ID 0.060/OD 0.076 in and ID 0.062/OD 0.095 in),can be released from a silicone tube without any apertures
same,effect of apertures on release rate,"[1]; 0, 1 (150 μm), 2, 30 or 60 (360 μm) apertures",release rate can be increased by adding apertures to the device
same,delivery of drug via diffusion through the silicone wall of the drug reservoir,[2],feasible to deliver drug via diffusion through a silicone wall without an aperture
